Test results from patent US20250092065A1, “2-(INDAZOL-5-YL)-6-(PIPERIDIN-4-YL)-1,7-NAPHTHYRIDINE DERIVATIVES AND RELATED COMPOUNDS AS MODULATORS FOR SPLICING NUCLEIC ACIDS AND FOR THE TREATMENT OF PROLIFERATIVE DISEASES” (REMIX THERAPEUTICS INC., priority 2022, published 2025).
Read-outs that look alike come from different tables or passages of the source.

Columns and labels:
MYB = assay: HiBiT protein abundance assay, MYB (K562 HiBiT knock-in); type: cell-based, human; details: HiBiT knock-in K562 cells, 24 hours, top dose 10 μM
Outline: (§1)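 Luminescence readout: Nano-Glo HiBiT lytic detection after 24 h compound exposure of K562 HiBiT knock-in cells, 10000 cells/well. Dosing 10-pt, 3-fold, top 10 μM final. % response vs untreated parental K562 and DMSO controls; 4PL fit, IC50 = concentration giving 50% protein abundance.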

SMN2 mRNA = assay: RT-qPCR splicing assay, SMN2 mRNA; type: cell-based, human; details: canonical junction qPCR panel, Table 4, read-out: SMN2 IC50 (decrease in CJ mRNA levels)
Outline: (§2)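 Splice switching quantified in compound-treated A673/K562 cells after 24 h exposure (top dose 10 uM, 3-fold steps, ≤0.25% DMSO), using CJ and AJ qPCR assays run at least in duplicate. RQ derived by 2^(−ΔΔCt), then percentage response.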

HTT = assay: HiBiT protein abundance assay, HTT (K562 HiBiT knock-in); type: cell-based, human; details: HiBiT knock-in K562 cells, 24 hours, top dose 10 μM
Outline: as §1

MYB mRNA = assay: RT-qPCR splicing assay, MYB mRNA canonical (CJ) and alternative (AJ) junction; type: cell-based, human; details: for AC50: MYB alternative junction mRNA, read-out: MYB AJ (increase in AJ mRNA, AC50)
Outline: as §2

HTT mRNA = assay: RT-qPCR splicing assay, HTT mRNA canonical (CJ) and alternative (AJ) junction; type: cell-based, human; details: for AC50: HTT alternative junction mRNA, read-out: HTT AJ (increase in AJ mRNA, AC50)
Outline: as §2

K562 cells = assay: Cell Titer Glo 2.0 cell viability (toxicity) assay, K562; details: 500 cells/well, 72 hours
Target C = assay: HiBiT protein abundance assay, Target C (K562 HiBiT knock-in); type: cell-based, human; details: HiBiT knock-in K562 cells, 24 hours, top dose 10 μM
Outline: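 K562 HiBiT knock-in cells (10000/well) were treated 24 h at 37° C with a 10-point 3-fold dilution series (top 10 μM final, ≤0.25% DMSO). HiBiT luminescence was read after lytic LgBiT detection. Percent response used unmodified K562 and DMSO-treated knock-in controls, and IC50 came from a four-parameter fit at 50% of untreated.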

[1] = Homo sapiens, MYB canonical junction mRNA, RT-qPCR, read-out: MYB CJ (decrease in CJ mRNA levels, IC50)
[2] = Homo sapiens, canonical junction qPCR panel, Table 4, read-out: MYB IC50 (decrease in CJ mRNA levels)
[3] = Homo sapiens, HTT canonical junction mRNA, RT-qPCR, read-out: HTT CJ (decrease in CJ mRNA levels, IC50)
[4] = Homo sapiens, canonical junction qPCR panel, Table 4, read-out: HTT IC50 (decrease in CJ mRNA levels)

| SMILES | IC50 (MYB) [nM] | IC50 (SMN2 mRNA) [nM] | IC50 (HTT) [nM] | AC50 (MYB mRNA; RT-qPCR) [nM] | IC50 (MYB mRNA; MYB canonical junction mRNA, RT-qPCR, read-out: MYB CJ (decrease in CJ mRNA levels, IC50)) [nM] | IC50 (MYB mRNA; canonical junction qPCR panel, Table 4, read-out: MYB IC50 (decrease in CJ mRNA levels)) [nM] | AC50 (HTT mRNA; RT-qPCR) [nM] | IC50 (HTT mRNA; HTT canonical junction mRNA, RT-qPCR, read-out: HTT CJ (decrease in CJ mRNA levels, IC50)) [nM] | IC50 (HTT mRNA; canonical junction qPCR panel, Table 4, read-out: HTT IC50 (decrease in CJ mRNA levels)) [nM] | Effect of Exemplary Compounds on Cell Viability, K562 (K562 cells) | IC50 (Target C) [nM] | IC50 (SMN2 mRNA; Homo sapiens) [nM] | AC50 (MYB mRNA; Homo sapiens, RT-qPCR) [nM] | IC50 (MYB mRNA; [1]) [nM] | IC50 (MYB mRNA; [2]) [nM] | AC50 (HTT mRNA; Homo sapiens, RT-qPCR) [nM] | IC50 (HTT mRNA; [3]) [nM] | IC50 (HTT mRNA; [4]) [nM] |
| --- | --- | --- | --- | --- | --- | --- | --- | --- | --- | --- | --- | --- | --- | --- | --- | --- | --- | --- |
| Cc1c(O)c(-c2ccc3nc(N4CCC(NC(C)(C)C)C4)ccc3n2)cc2cn(C)nc12 (stereo not drawn) [Compound 191] | < 100 | > 10000 | < 100 | > 10000 | > 10000 | > 10000 | > 10000 | > 10000 | > 10000 | A (A represents <100 nM) | < 100 | – | – | – | – | – | – | – |
| Cn1cc2cc(-c3ccc4nc(C5CCNCC5)ccc4n3)c(F)cc2n1 [Compound 193] | 1000 to 10000 | – | 1000 to 10000 | – | – | – | – | – | – | C (C represents 1000-9999 nM) | 1000 to 10000 | 1000 to 10000 | 1000 to 10000 | 1000 to 10000 | 1000 to 10000 | 1000 to 10000 | 1000 to 10000 | 1000 to 10000 |
| Cn1cc2cc(-c3ccc4nc(N5CC[C@@H](NCC6CC6)C5)ccc4n3)c(O)cc2n1 [Compound 195] | < 100 | – | 100 to 1000 | – | – | – | – | – | – | B (B represents 100-1000 nM) | 100 to 1000 | < 100 | < 100 | 100 to 1000 | 100 to 1000 | 100 to 1000 | 100 to 1000 | 100 to 1000 |
| Cn1cc2cc(-c3ccc4nc(C5CCNCC5)ccc4n3)c(C(F)F)cc2n1 [Compound 196] | > 10000 | – | > 10000 | – | – | – | – | – | – | D (D represents greater than 10 μM in K562 cells) | > 10000 | 1000 to 10000 | > 10000 | > 10000 | > 10000 | > 10000 | > 10000 | > 10000 |
| Cn1cc2cc(-c3ccc4nc(N5CC[C@H](NC6CC6)C5)ccc4n3)c(O)cc2n1 [Compound 197] | 100 to 1000 | – | < 100 | – | – | – | – | – | – | B (B represents 100-1000 nM) | 100 to 1000 | < 100 | 100 to 1000 | 100 to 1000 | 100 to 1000 | < 100 | < 100 | < 100 |
| Cn1cc2cc(-c3ccc4nc(N5CC[C@@H](NC6CC6)C5)ccc4n3)c(O)cc2n1 [Compound 198] | < 100 | – | < 100 | – | – | – | – | – | – | B (B represents 100-1000 nM) | < 100 | < 100 | < 100 | < 100 | < 100 | < 100 | < 100 | < 100 |
| Cn1cc2nc(-c3ccc4nc(C5CCNCC5)ccc4n3)ccc2n1 [Compound 199] | 100 to 1000 | – | 100 to 1000 | – | – | – | – | – | – | B (B represents 100-1000 nM) | 100 to 1000 | 100 to 1000 | 100 to 1000 | 100 to 1000 | 100 to 1000 | 100 to 1000 | 100 to 1000 | 100 to 1000 |
| Cn1cc2cc(-c3ccc4nc(C5CCNCC5)ccc4n3)ncc2n1 [Compound 200] | 1000 to 10000 | – | 1000 to 10000 | – | – | – | – | – | – | C (C represents 1000-9999 nM) | 1000 to 10000 | 1000 to 10000 | 1000 to 10000 | 1000 to 10000 | 1000 to 10000 | 1000 to 10000 | 1000 to 10000 | 1000 to 10000 |
| Cc1cn2cc(-c3ccc4nc(N5CCC(NC(C)(C)C)C5)ccc4n3)cc(C)c2n1 (stereo not drawn) [Compound 201] | 100 to 1000 | – | < 100 | – | – | – | – | – | – | B (B represents 100-1000 nM) | 100 to 1000 | < 100 | 100 to 1000 | 100 to 1000 | 100 to 1000 | 100 to 1000 | 100 to 1000 | 100 to 1000 |
| Cn1cc2cc(-c3ccc4nc(N5CCC(NC(C)(C)C)C5)ccc4n3)c(O)c(F)c2n1 (stereo not drawn) [Compound 202] | < 100 | – | < 100 | – | – | – | – | – | – | A (A represents <100 nM) | < 100 | < 100 | < 100 | < 100 | < 100 | < 100 | < 100 | < 100 |
| Cc1cn2nc(-c3ccc4nc(N5CCC(NC(C)(C)C)C5)ccc4n3)c(O)c2c(C)n1 (stereo not drawn) [Compound 203] | < 100 | – | < 100 | – | – | – | – | – | – | B (B represents 100-1000 nM) | < 100 | < 100 | 100 to 1000 | 100 to 1000 | 100 to 1000 | < 100 | < 100 | < 100 |
| Cn1cc2cc(-c3ccc4nc(C5CCNCC5)ccc4n3)c(C#N)cc2n1 [Compound 204] | 1000 to 10000 | – | 1000 to 10000 | – | – | – | – | – | – | D (D represents greater than 10 μM in K562 cells) | 1000 to 10000 | 100 to 1000 | 1000 to 10000 | 1000 to 10000 | 1000 to 10000 | 1000 to 10000 | 1000 to 10000 | 1000 to 10000 |
| Cn1cc2nc(-c3ccc4nc(C5CCNCC5)ccc4n3)c(F)cc2n1 [Compound 205] | 1000 to 10000 | – | 1000 to 10000 | – | – | – | – | – | – | C (C represents 1000-9999 nM) | 1000 to 10000 | 1000 to 10000 | 1000 to 10000 | 1000 to 10000 | 1000 to 10000 | 1000 to 10000 | 1000 to 10000 | 1000 to 10000 |
| Cc1cn2cc(-c3ccc4nc(N5CCC(NC(C)(C)C)C5)ccc4n3)nc(C)c2n1 (stereo not drawn) [Compound 206] | 1000 to 10000 | – | 1000 to 10000 | – | – | – | – | – | – | C (C represents 1000-9999 nM) | 1000 to 10000 | 1000 to 10000 | 1000 to 10000 | 1000 to 10000 | 1000 to 10000 | 1000 to 10000 | 1000 to 10000 | 1000 to 10000 |
| Cn1cc2nc(-c3ccc4nc(N5CCC(NC(C)(C)C)C5)ccc4n3)c(F)cc2n1 (stereo not drawn) [Compound 207] | 1000 to 10000 | – | 1000 to 10000 | – | – | – | – | – | – | C (C represents 1000-9999 nM) | 1000 to 10000 | 1000 to 10000 | 1000 to 10000 | 1000 to 10000 | 1000 to 10000 | 1000 to 10000 | 1000 to 10000 | 1000 to 10000 |
| Cc1nc(-c2ccc3nc(N4CCC(NC(C)(C)C)C4)ccc3n2)cc2cn(C)nc12 (stereo not drawn) [Compound 208] | > 10000 | – | 1000 to 10000 | – | – | – | – | – | – | D (D represents greater than 10 μM in K562 cells) | > 10000 | 1000 to 10000 | 1000 to 10000 | > 10000 | > 10000 | > 10000 | > 10000 | > 10000 |
| Cc1nc2cc(O)c(-c3ccc4nc(N5CC[C@H](NC(C)(C)C)C5)ccc4n3)cc2o1 [Compound 209] | 1000 to 10000 | – | < 100 | – | – | – | – | – | – | C (C represents 1000-9999 nM) | < 100 | < 100 | < 100 | < 100 | < 100 | < 100 | < 100 | < 100 |
| Cc1nc2cc(O)c(-c3ccc4nc(N5CC[C@@H](NC(C)(C)C)C5)ccc4n3)cc2o1 [Compound 210] | < 100 | – | < 100 | – | – | – | – | – | – | A (A represents <100 nM) | < 100 | < 100 | 1000 to 10000 | 1000 to 10000 | 1000 to 10000 | 1000 to 10000 | 100 to 1000 | 100 to 1000 |
